Assay results reported in patent US7186831B2, “5-halo-2-alkyl[1,2,4]triazolo[1,5-a]pyrimidin-7-amines” (priority 2001, dated 2007).

Assay: log P by HPLC
Format: physicochemical
Conditions: EEC directive 79/831 Annex V. A8 by HPLC (gradient method, acetonitrile/0.1% aqueous phosphoric acid)

| logP | SMILES |
| --- | --- |
| 4.07 | Fc1ccc(-c2c(Cl)nc3nc(C4CC4)nn3c2N2CCC(C(F)(F)F)CC2)c(F)c1 [compound 515] |
| 2.2 | CC(=O)NC1CCN(c2c(-c3ccc(F)cc3F)c(Cl)nc3nc(C4CC4)nn23)CC1 [compound 516] |
| 4.03 | Fc1ccc(-c2c(Cl)nc3nc(C4CC4)nn3c2N2CCCCC2)c(F)c1 [compound 517] |
| 2.85 | Fc1ccc(-c2c(Cl)nc3nc(C4CC4)nn3c2N2CCOCC2)c(F)c1 [compound 518] |
| 3.58 | Fc1ccc(-c2c(Cl)nc3nc(C4CC4)nn3c2N2CCSCC2)c(F)c1 [compound 519] |
| 3.6 | Cc1ccc(Nc2c(-c3ccc(F)cc3F)c(Cl)nc3nc(C4CC4)nn23)cc1 [compound 521] |
| 3.87 | Fc1ccc(-c2c(Cl)nc3nc(C4CC4)nn3c2N2CCc3ccccc3C2)c(F)c1 [compound 522] |
| 3.38 | Cc1nc2nc(Cl)c(-c3c(F)cc(F)cc3F)c(NC(C)C(C)C)n2n1 (stereo not drawn) [compound 523] |

Same assay, conditions: HPLC, gradient method, acetonitrile/0.1% aqueous phosphoric acid; EEC directive 79/831 Annex V. A8

| SMILES | logP |
| --- | --- |
| Cc1nc2nc(Cl)c(-c3c(F)cccc3F)c(N3CCCCO3)n2n1 [compound 524] | 2.84 |
| CCCCNc1c(-c2c(F)cccc2F)c(Cl)nc2nc(C)nn12 [compound 560] | 2.89 |
| Cc1nc2nc(Cl)c(-c3c(F)cccc3F)c(N(C)CCN(C)C)n2n1 [compound 561] | 1.28 |
| CCOC(=O)CN(C)c1c(-c2c(F)cccc2F)c(Cl)nc2nc(C)nn12 [compound 562] | 2.62 |
| Cc1nc2nc(Cl)c(-c3c(F)cccc3F)c(N(C)CCC#N)n2n1 [compound 563] | 2.17 |
| Cc1nc2nc(Cl)c(-c3c(F)cccc3F)c(N(C)CC#N)n2n1 [compound 564] | 2.18 |
| COC(=O)CN(C)c1c(-c2c(F)cccc2F)c(Cl)nc2nc(C)nn12 [compound 565] | 2.32 |
| Cc1nc2nc(Cl)c(-c3c(F)cccc3F)c(N(C)Cc3ccco3)n2n1 [compound 566] | 2.97 |
| CCN(CCN(C)C)c1c(-c2c(F)cccc2F)c(Cl)nc2nc(C)nn12 [compound 567] | 1.46 |
| CCN(CCC#N)c1c(-c2c(F)cccc2F)c(Cl)nc2nc(C)nn12 [compound 569] | 2.41 |
| CCCN(Cc1cccs1)c1c(-c2c(F)cccc2F)c(Cl)nc2nc(C)nn12 [compound 570] | 3.96 |
| Cc1nc2nc(Cl)c(-c3c(F)cccc3F)c(N(CCN)C(C)C)n2n1 [compound 571] | 1.28 |
| Cc1nc2nc(Cl)c(-c3c(F)cc(F)cc3F)c(N3CCCCO3)n2n1 [compound 574] | 3.07 |
| Cc1nc2nc(Cl)c(-c3ccc(F)cc3F)c(N3CCCCO3)n2n1 [compound 576] | 2.95 |
| Cc1nc2nc(Cl)c(-c3c(F)cccc3F)c(N3OCCC3C)n2n1 (stereo not drawn) [compound 578] | 2.61 |
| CC(C)C(C)Nc1c(-c2ccccc2Cl)c(Cl)nc2nc(C3CC3)nn12 (stereo not drawn) [compound 579] | 4.14 |
| CC1C=CC(C)N1c1c(-c2ccccc2Cl)c(Cl)nc2nc(C3CC3)nn12 (stereo not drawn) [compound 580] | 4.19 |
| CC(C)C(C)Nc1c(-c2c(F)cc(F)cc2F)c(Cl)nc2nc(C3CC3)nn12 (stereo not drawn) [compound 581] | 4.03 |
| CC1C=CC(C)N1c1c(-c2c(F)cc(F)cc2F)c(Cl)nc2nc(C3CC3)nn12 (stereo not drawn) [compound 582] | 4.17 |
| CC(C)C(C)Nc1c(-c2c(F)cccc2Cl)c(Cl)nc2nc(C3CC3)nn12 (stereo not drawn) [compound 583] | 4.12 |
| CC1C=CC(C)N1c1c(-c2c(F)cccc2Cl)c(Cl)nc2nc(C3CC3)nn12 (stereo not drawn) [compound 584] | 4.15 |
| Cc1nc2nc(Cl)c(-c3c(F)cc(F)cc3F)c(N3OCCC3C)n2n1 (stereo not drawn) [compound 585] | 2.93 |
| Cc1nc2nc(Cl)c(-c3ccc(F)cc3Cl)c(NC(C)C(C)C)n2n1 (stereo not drawn) [compound 588] | 3.6 |
| Cc1nc2nc(Cl)c(-c3ccc(F)cc3Cl)c(N3CCCCO3)n2n1 [compound 589] | 3.23 |
| OC1CCN(c2c(-c3ccc(F)cc3F)c(Cl)nc3nc(C4CC4)nn23)C1 (stereo not drawn) [compound 603] | 2.2 |
| CC1CCCN1c1c(-c2ccc(F)cc2F)c(Cl)nc2nc(C3CC3)nn12 (stereo not drawn) [compound 604] | 3.76 |

Next, values leading:

| logP | SMILES |
| --- | --- |
| 4.03 | CC(C)CNc1c(-c2ccc(F)cc2F)c(Cl)nc2nc(C(F)(F)F)nn12 [compound 525] |
| 4.07 | CCCCNc1c(-c2ccc(F)cc2F)c(Cl)nc2nc(C(F)(F)F)nn12 [compound 526] |
| 4.4 | CC(C)(C)CNc1c(-c2ccc(F)cc2F)c(Cl)nc2nc(C(F)(F)F)nn12 [compound 527] |
| 4.03 | CCC(C)Nc1c(-c2ccc(F)cc2F)c(Cl)nc2nc(C(F)(F)F)nn12 (stereo not drawn) [compound 528] |
| 3.7 | Fc1ccc(-c2c(Cl)nc3nc(C(F)(F)F)nn3c2NCCC(F)(F)F)c(F)c1 [compound 529] |
| 4.21 | Fc1ccc(-c2c(Cl)nc3nc(C(F)(F)F)nn3c2NC2CCCC2)c(F)c1 [compound 530] |
| 3.49 | Fc1ccc(-c2c(Cl)nc3nc(C(F)(F)F)nn3c2NC2CC2)c(F)c1 [compound 531] |
| 3.58 | Fc1ccc(-c2c(Cl)nc3nc(C(F)(F)F)nn3c2NCC(F)(F)F)c(F)c1 [compound 532] |
| 3.8 | Fc1ccc(-c2c(Cl)nc3nc(C(F)(F)F)nn3c2NCC2CC2)c(F)c1 [compound 533] |
| 3.75 | C=C(C)CNc1c(-c2ccc(F)cc2F)c(Cl)nc2nc(C(F)(F)F)nn12 [compound 534] |
| 4.19 | CC(C)(C)Nc1c(-c2ccc(F)cc2F)c(Cl)nc2nc(C(F)(F)F)nn12 [compound 535] |
| 4.44 | Fc1ccc(-c2c(Cl)nc3nc(C(F)(F)F)nn3c2NC2CCCC(C(F)(F)F)C2)c(F)c1 (stereo not drawn) [compound 536] |
| 4.43 | Fc1ccc(-c2c(Cl)nc3nc(C(F)(F)F)nn3c2NC2CCC(C(F)(F)F)CC2)c(F)c1 (stereo not drawn) [compound 537] |
| 1.77 | CN(C)CCN(C)c1c(-c2ccc(F)cc2F)c(Cl)nc2nc(C(F)(F)F)nn12 [compound 538] |
| 3.65 | C#CCN(C)c1c(-c2ccc(F)cc2F)c(Cl)nc2nc(C(F)(F)F)nn12 [compound 539] |
| 3.62 | CN(CC1OCCO1)c1c(-c2ccc(F)cc2F)c(Cl)nc2nc(C(F)(F)F)nn12 [compound 540] |
| 4.09 | C=CCN(C)c1c(-c2ccc(F)cc2F)c(Cl)nc2nc(C(F)(F)F)nn12 [compound 541] |
| 3.19 | CN(CCC#N)c1c(-c2ccc(F)cc2F)c(Cl)nc2nc(C(F)(F)F)nn12 [compound 542] |
| 4.11 | CN(Cc1ccco1)c1c(-c2ccc(F)cc2F)c(Cl)nc2nc(C(F)(F)F)nn12 [compound 543] |
| 4.54 | CC(C)CN(C)c1c(-c2ccc(F)cc2F)c(Cl)nc2nc(C(F)(F)F)nn12 [compound 544] |
| 3.73 | COCCN(C)c1c(-c2ccc(F)cc2F)c(Cl)nc2nc(C(F)(F)F)nn12 [compound 545] |
| 4.44 | C=C(C)CN(C)c1c(-c2ccc(F)cc2F)c(Cl)nc2nc(C(F)(F)F)nn12 [compound 546] |
| 1.91 | CCN(CCN(C)C)c1c(-c2ccc(F)cc2F)c(Cl)nc2nc(C(F)(F)F)nn12 [compound 547] |
| 4.4 | C=CCN(CC)c1c(-c2ccc(F)cc2F)c(Cl)nc2nc(C(F)(F)F)nn12 [compound 548] |

| logP | SMILES |
| --- | --- |
| 4.42 | CCN(Cc1ccco1)c1c(-c2ccc(F)cc2F)c(Cl)nc2nc(C(F)(F)F)nn12 [compound 549] |
| 3.46 | CCN(CCC#N)c1c(-c2ccc(F)cc2F)c(Cl)nc2nc(C(F)(F)F)nn12 [compound 550] |
| 4.05 | CCOC(=O)CN(CC)c1c(-c2ccc(F)cc2F)c(Cl)nc2nc(C(F)(F)F)nn12 [compound 551] |
| 4.77 | CCCN(CC1CCCO1)c1c(-c2ccc(F)cc2F)c(Cl)nc2nc(C(F)(F)F)nn12 (stereo not drawn) [compound 552] |
| 4.39 | CCCN(CCOC)c1c(-c2ccc(F)cc2F)c(Cl)nc2nc(C(F)(F)F)nn12 [compound 553] |
| 4.28 | CCOC(=O)CN(c1c(-c2ccc(F)cc2F)c(Cl)nc2nc(C(F)(F)F)nn12)C1CC1 [compound 554] |
| 2.76 | OC1CCN(c2c(-c3ccc(F)cc3F)c(Cl)nc3nc(C(F)(F)F)nn23)C1 (stereo not drawn) [compound 555] |
| 4.47 | Fc1ccc(-c2c(Cl)nc3nc(C(F)(F)F)nn3c2NC2CCCCC2)c(F)c1 [compound 556] |
| 5.12 | CC(Nc1c(-c2ccc(F)cc2F)c(Cl)nc2nc(C(F)(F)F)nn12)C1CCCCC1 (stereo not drawn) [compound 557] |
| 4.03 | CCN(CCOC)c1c(-c2ccc(F)cc2F)c(Cl)nc2nc(C(F)(F)F)nn12 [compound 558] |
| 3.3 | C=CCN(CC)c1c(-c2c(F)cccc2F)c(Cl)nc2nc(C)nn12 [compound 568] |
| 3.96 | C=CCN(CC)c1c(-c2ccc(F)cc2F)c(Cl)nc2nc(C3CC3)nn12 [compound 591] |
| 3.97 | CCN(Cc1ccco1)c1c(-c2ccc(F)cc2F)c(Cl)nc2nc(C3CC3)nn12 [compound 592] |
| 3.78 | CCN(CC1CCCO1)c1c(-c2ccc(F)cc2F)c(Cl)nc2nc(C3CC3)nn12 (stereo not drawn) [compound 593] |
| 3.46 | CCN(CCOC)c1c(-c2ccc(F)cc2F)c(Cl)nc2nc(C3CC3)nn12 [compound 594] |
| 3.54 | CCOC(=O)CN(CC)c1c(-c2ccc(F)cc2F)c(Cl)nc2nc(C3CC3)nn12 [compound 595] |
| 4.52 | CCCCN(CC)c1c(-c2ccc(F)cc2F)c(Cl)nc2nc(C3CC3)nn12 [compound 596] |
| 3.73 | CCN(CC)c1c(-c2ccc(F)cc2F)c(Cl)nc2nc(C3CC3)nn12 [compound 597] |
| 4.53 | CCCN(CC1CC1)c1c(-c2ccc(F)cc2F)c(Cl)nc2nc(C3CC3)nn12 [compound 598] |
| 4.71 | CCCN(CC1CCCCO1)c1c(-c2ccc(F)cc2F)c(Cl)nc2nc(C3CC3)nn12 (stereo not drawn) [compound 599] |
| 4.22 | CCCN(CC1CCCO1)c1c(-c2ccc(F)cc2F)c(Cl)nc2nc(C3CC3)nn12 (stereo not drawn) [compound 600] |
| 4.64 | CCCN(Cc1cccs1)c1c(-c2ccc(F)cc2F)c(Cl)nc2nc(C3CC3)nn12 [compound 601] |
| 3.84 | CCCN(CCOC)c1c(-c2ccc(F)cc2F)c(Cl)nc2nc(C3CC3)nn12 [compound 602] |
